From patent publication US20130289112A1, “SALTS OF KUKOAMINE B, PREPARATION METHOD AND USE THEREOF” (priority 2010, published 2013) come the findings set out here.

Where a name gives a salt, the structure may show the parent alone.

The test system of one experiment is sepsis model of mice. Description: Protective effect in the sepsis model of mice (cecal ligation and puncture, CLP). The experiment is classed as in vivo, Balb/c mice. The following applies: 7 days; for survival rate of mice: combination with antibiotic (ampicillin sodium-sulbactam sodium 80 mg/kg), salt 2.5 mg/kg through tail vein at 0-68 hours after surgery; for protective effect to the sepsis model of mice: salt 2.5 mg/kg tail vein combined with antibiotic, FIG. 5. The source says:
19.1 Methods: 120 Balb/c mice, each of 19-21 g, half of which being male and half female, are divided into six groups randomly, including control group, antibiotic group, antibiotic and kukoamine B hydrochlorate group, antibiotic and kukoamine B methanesulfonate group, antibiotic and kukoamine B p-toluenesulfonate group, and antibiotic and kukoamine B benzene sulfonate group. Each group contains 20 mice. The mice are narcotized with anesthesia machine; the vapor concentration of isoflurane is 5%; the pressure of the mixed gas is 1 MPa; anesthesia time is about 5 min. The mice model are setup by cecal ligation and puncture (CLP) comprising the following steps: the mice are maintained in supine position, and the abdomen skin is disinfected with iodophor; the skin, muscular layer and peritoneum below the midpoint of linea alba 0.3 cm are cut open with ophthalmic scissors (the length of the incisions is 0.8 CM); the muscular layer is picked up with ophthalmic forceps, and the enterocoelia is explored with ophthalmic forceps; the cecum is pulled out and ligated with No. 4 suture at 0.5 CM from the end of cecum; then, the cecum is vertically punctured with No. 12 needle, and squeezed to extrude contents; finally, the cecum is put back and the incision is stitched. Thereafter, the mice in control group are injected with 0.2 ml of sterile saline through tail vein; the mice in antibiotic group are injected with antibiotic (ampicillin sodium-sulbactam sodium) at a dosage of 80 mg/kg body weight through tail vein at 4 hours after surgery; the mice in other four groups are separately injected with kukoamine B hydrochlorate, kukoamine B methanesulfonate, kukoamine B p-toluenesulfonate and kukoamine B benzene sulfonate at a dosage of 2.5 mg/kg body weight at a time through tail vein at 0, 4, 12, 20, 28, 36, 44, 52, 60 and 68 hours after surgery.

In experiment [1] the test system is RAW264.7 cells. The experiment can be described thus: Inhibition of release of inflammatory mediators (TNF-α) in RAW264.7 cells induced by CpG DNA. The following applies: CpG DNA 10 μg/ml, salt 0, 50, 100, 200 μM, 4 h, ELISA, FIG. 4. Type of experiment: cell-based. Here is the method: (§1) 18.1 Methods: RAW264.7 cells are diluted to 1×10^6/ml in DMEM culture medium, added into a 96-well cell culture plate (200 μl per well), and incubated at 37° C. in a 5% CO2 humidified incubator for 4 h, and then the supernatant is replaced with 200 μl of serum-free DMEM culture medium after cells attachment. Next, each well is added with CpG DNA (final concentration of 10 μg/ml ), and then added with one of the salts of kukoamine B (including kukoamine B malate, kukoamine B succinate, kukoamine B lactate, kukoamine B tartrate, kukoamine B methanesulfonate, kukoamine B p-toluenesulfonate, kukoamine B glutamate, kukoamine B acetate, kukoamine B hydrochlorate, and kukoamine B sulfate) to obtain the final concentration of 0, 50, 100, and 200 μM, respectively. The control group contains no CpG DNA. Then, the incubation goes on for 4 h. The supernatant is collected to measure the concentration of TNF-α according to the manufacturer's instructions of ELISA kit.
A general note: ELISA stands for enzyme-linked immunosorbent assay.

A short description of experiment [2]: Affinity assay of salts of kukoamine B with lipid A (IAsys plus Affinity Sensor). The experiment is classed as binding. Particulars: 1 mg in 1 ml PBS (0.01 M, pH 7.4), 5 μl added to cuvette with 45 μl PBS, immobilized lipid A, 3 min; curves in FIG. 1. The method, then: 15.1 Methods: The affinity assay is carried out according to the methods disclosed in the Chinese patent titled “Use of an active ingredient or active substance selected and isolated from traditional Chinese herbs in the preparation of drugs for treating sepsis” (Chinese patent Number ZL 200510070677.3) granted to the applicant, which mainly comprises the following steps:
(1) Lipid A is immobilized on the reacting surfaces of non-derivative cuvettes according to the instructions of immobilization of lipid in the manufacturer's instructions of IAsys plus Affinity Sensor. Wherein, the end of hydrophobic side chain of lipid A was immobilized on cuvette, and the hydrophilic end is floating outside, which act as target site of binding reaction;
(2) 1 mg of each of the salts, including kukoamine B hydrochlorate, kukoamine B hydrobromide, kukoamine B sulfate, kukoamine B phosphate, kukoamine B acetate, kukoamine B maleate, kukoamine B succinate, kukoamine B malate, kukoamine B lactate, kukoamine B tartrate, kukoamine B methanesulfonate, kukoamine B p-toluenesulfonate, kukoamine B glutamate, and kukoamine B aspartate, is fully dissolved by 1 ml of PBS solution (0.01 M, pH 7.4), respectively;
(3) 5 μl of each of the solution obtained in step (2) is added into the affinity sensor's cuvettes (containing 45 μl of PBS solution) previously immobilized with lipid A to carry out the reaction, respectively;
(4) The binding reaction is carried out for 3 min, and the binding curves are recorded;
(5) Each of the cuvettes is washed with 50 μl of PBS solution for 3 times, and dissociation curves are recorded;
(6) Each of the cuvettes is washed with 0.1 M HCl solution for 3 times, and the regeneration curves are recorded.

Experiment [3] is described as follows: Neutralizing test on LPS in vitro (kinetic turbidimetric limulus test). The experiment is classed as biochemical. The following applies: 20 μM solution mixed with equal volume of LPS 0.25 ng/ml, 37° C. 30 min, TAL reagent; FIG. 2. The method, then:
16.1 Methods: The neutralizing test is carried out according to the manufacturer's instructions of 32 Well Kinetic Tube Reader (ATi321-06) endotoxin detector, which mainly comprises the following steps:
(1) Each of the salts, including kukoamine B hydrochlorate, kukoamine B hydrobromide, kukoamine B sulfate, kukoamine B phosphate, kukoamine B acetate, kukoamine B maleate, kukoamine B succinate, kukoamine B malate, kukoamine B lactate, kukoamine B tartrate, kukoamine B methanesulfonate, kukoamine B p-toluenesulfonate, kukoamine B glutamate, and kukoamine B aspartate, is prepared into 20 μM solution with nonpyrogenic water, respectively;
(2) 100 μl of each of the solution obtained in step (1) is separately mixed with equal volume of LPS solution (0.25 ng/ml). At the same time, the control group is established, which is a mixed solution containing 100 μl of nonpyrogenic water and equal volume of LPS solution (0.25 ng/ml). The LPS group and control group are incubated at 37° C. for 30 min. Then, 100 μl of the reaction solutions of LPS group and control group are separately added into a detector tube containing 100 μl of TAL reagents, and LPS value of each group are detected by kinetic turbidimetric limulus test according to the manufacturer's instructions of 32 Well Kinetic Tube Reader (ATi321-06) Bacterial Endotoxin Detection system. The test of each concentration is repeated three times;

Experiment [4] concerns RAW264.7 cells. Description: Inhibition of release of inflammatory mediators (TNF-α) in RAW264.7 cells induced by LPS. Type of experiment: cell-based. Particulars: LPS 100 ng/ml, salt 0, 50, 100, 200 μM, 4 h, ELISA, FIG. 3. The method, then:
as §1, with “17.1” for “18.1”, “LPS” for “CpG DNA”, “100 ng/ml),” for “10 μg/ml ),”, “LPS.” for “CpG DNA.”

Turning to kukoamine B benzene sulfonate, in the experiment on sepsis model of mice, the “survival rate of mice” value is 30% and the “protective effect to the sepsis model of mice” value (from here on “protective effect … of mice”) was “have protective effects to the sepsis model of mice”.
For `NCCCN(CCCCNCCCNC(=O)CCc1ccc(O)c(O)c1)C(=O)CCc1ccc(O)c(O)c1` [kukoamine B hydrochlorate] the same measures were 20% and “have protective effects to the sepsis model of mice”.
In the case of `Cc1ccc(S(=O)(=O)O)cc1.NCCCN(CCCCNCCCNC(=O)CCc1ccc(O)c(O)c1)C(=O)CCc1ccc(O)c(O)c1` [kukoamine B p-toluenesulfonate], the “inhibition of the release of TNF-α induced by CpG DNA” value (“inhibition … by CpG DNA” below) in the experiment on RAW264.7 cells [1] is on record as “can inhibit the release of TNF-α”. For the same compound, in the experiment with sepsis model of mice, the “survival rate of mice” value amounted to 20% and the “protective effect … of mice” value is reported as “have protective effects to the sepsis model of mice”. The “binding reaction with lipid A” value in experiment [2] was “can bind with lipid A”. Further, the “neutralization of LPS in vitro” value in experiment [3] is “can neutralize LPS in vitro”. In addition, in the experiment with RAW264.7 cells [4], the “inhibition of the release of TNF-α induced by LPS” value (“inhibition of the release … by LPS” for short) was “can inhibit the release of TNF-α”.
For the compound `CS(=O)(=O)O.NCCCN(CCCCNCCCNC(=O)CCc1ccc(O)c(O)c1)C(=O)CCc1ccc(O)c(O)c1` [kukoamine B methanesulfonate], in the experiment with RAW264.7 cells [1], the “inhibition … by CpG DNA” value is on record as “can inhibit the release of TNF-α”. For the same compound, in the experiment on sepsis model of mice, the “survival rate of mice” value came out at 50% and the “protective effect … of mice” value is given as “have protective effects to the sepsis model of mice”. The “comparison of protective effect among the salts” value with sepsis model of mice (four salts compared) is “has the best effect”. Further, the “binding reaction with lipid A” value in experiment [2] was “can bind with lipid A”. Also, in experiment [3], the “neutralization of LPS in vitro” value is “can neutralize LPS in vitro”. In addition, the “inhibition of the release … by LPS” value in the experiment on RAW264.7 cells [4] is on record as “can inhibit the release of TNF-α”.
For `CC(=O)O.NCCCN(CCCCNCCCNC(=O)CCc1ccc(O)c(O)c1)C(=O)CCc1ccc(O)c(O)c1` [kukoamine B acetate], in the experiment on RAW264.7 cells [1], the “inhibition … by CpG DNA” value is “can inhibit the release of TNF-α”. The “binding reaction with lipid A” value in experiment [2] was “can bind with lipid A”. Also, the “neutralization of LPS in vitro” value in experiment [3] is recorded as “can neutralize LPS in vitro”. In addition, the “inhibition of the release … by LPS” value with RAW264.7 cells [4] was “can inhibit the release of TNF-α”.
On to `NCCCN(CCCCNCCCNC(=O)CCc1ccc(O)c(O)c1)C(=O)CCc1ccc(O)c(O)c1` [kukoamine B hydrobromide], for which the “binding reaction with lipid A” value in experiment [2] was “can bind with lipid A”. Also, the “neutralization of LPS in vitro” value in experiment [3] was “can neutralize LPS in vitro”.
Take `NCCCN(CCCCNCCCNC(=O)CCc1ccc(O)c(O)c1)C(=O)CCc1ccc(O)c(O)c1` [kukoamine B malate]: the “inhibition … by CpG DNA” value in the experiment on RAW264.7 cells [1] is recorded as “can inhibit the release of TNF-α”. Besides, the “inhibition of the release … by LPS” value in the experiment on RAW264.7 cells [4] is “can inhibit the release of TNF-α”.
With `CC(O)C(=O)O.NCCCN(CCCCNCCCNC(=O)CCc1ccc(O)c(O)c1)C(=O)CCc1ccc(O)c(O)c1` [kukoamine B lactate], in the experiment on RAW264.7 cells [1], the “inhibition … by CpG DNA” value was “can inhibit the release of TNF-α”. Further, the “binding reaction with lipid A” value in experiment [2] was “can bind with lipid A”. Further, in experiment [3], the “neutralization of LPS in vitro” value is “can neutralize LPS in vitro”. Further, the “inhibition of the release … by LPS” value in the experiment with RAW264.7 cells [4] was “can inhibit the release of TNF-α”.
